The Kd is the constant that tells how readily two partners part at equilibrium. High values mean a looser complex, low ones a tighter complex.

Consider four compounds from paper PMC3982047 (Nature, 2014).

In one assay the target is PepTSo (Shewanella oneidensis, UniProt Q8EKT7). Nature of the assay: microscale thermophoresis. Type of assay: binding. (In general: In MST a laser heats a spot of the sample, and binding alters the fluorescence response.)
Assay [1] has as its target T1, AtNRT1.1 (Arabidopsis thaliana, UniProt Q05085).
T1 sequence (Q05085 1-590): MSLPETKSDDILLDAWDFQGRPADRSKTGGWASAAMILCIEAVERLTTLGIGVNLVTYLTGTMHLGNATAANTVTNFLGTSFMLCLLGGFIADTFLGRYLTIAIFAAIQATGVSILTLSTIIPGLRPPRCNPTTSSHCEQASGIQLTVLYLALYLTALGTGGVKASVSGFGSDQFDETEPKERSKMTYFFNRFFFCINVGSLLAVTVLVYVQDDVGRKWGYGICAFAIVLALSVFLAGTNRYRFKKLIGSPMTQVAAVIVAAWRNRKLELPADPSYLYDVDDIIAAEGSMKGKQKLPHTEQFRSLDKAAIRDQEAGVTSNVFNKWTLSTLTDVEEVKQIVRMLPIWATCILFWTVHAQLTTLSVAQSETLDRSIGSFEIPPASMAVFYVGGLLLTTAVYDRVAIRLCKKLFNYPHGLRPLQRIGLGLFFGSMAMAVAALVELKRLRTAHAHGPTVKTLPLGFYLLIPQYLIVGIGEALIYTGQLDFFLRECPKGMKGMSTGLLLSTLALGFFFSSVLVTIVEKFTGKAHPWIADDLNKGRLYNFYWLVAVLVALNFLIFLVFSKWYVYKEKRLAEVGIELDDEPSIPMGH
Nature of the assay: microscale thermophoresis. Type of assay: binding.

The target in assay [2] is AtNRT1.1 (Arabidopsis thaliana, UniProt Q05085, T101D). Nature of the assay: microscale thermophoresis. The class given is binding.
Sequence of AtNRT1.1 (Arabidopsis thaliana, UniProt Q05085, T101D) (Q05085 whole entry T101D): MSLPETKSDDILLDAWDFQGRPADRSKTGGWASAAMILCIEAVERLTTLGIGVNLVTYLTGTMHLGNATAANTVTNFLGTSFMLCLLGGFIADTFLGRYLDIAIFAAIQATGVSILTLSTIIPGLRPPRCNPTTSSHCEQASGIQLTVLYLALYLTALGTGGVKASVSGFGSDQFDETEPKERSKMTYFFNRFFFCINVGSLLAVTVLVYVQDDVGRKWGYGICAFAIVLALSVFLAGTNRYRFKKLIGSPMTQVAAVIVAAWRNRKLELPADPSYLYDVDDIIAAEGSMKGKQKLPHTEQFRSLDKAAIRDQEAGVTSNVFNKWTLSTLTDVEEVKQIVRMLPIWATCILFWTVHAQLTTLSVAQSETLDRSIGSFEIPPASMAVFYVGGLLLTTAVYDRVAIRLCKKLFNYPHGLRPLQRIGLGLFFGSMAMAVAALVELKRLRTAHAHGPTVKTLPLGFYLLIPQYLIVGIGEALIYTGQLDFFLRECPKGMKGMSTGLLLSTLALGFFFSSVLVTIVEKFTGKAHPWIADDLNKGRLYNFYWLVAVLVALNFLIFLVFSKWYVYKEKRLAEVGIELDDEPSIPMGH
The target in assay [3] is AtNRT1.1 (Arabidopsis thaliana, UniProt Q05085). Kind of assay: biochemical.
The target of assay [4] is PepTSo, peptide transporter from Shewanella oniendensis (Shewanella oniendensis (so in the source)). Nature of the assay: MST.

Peptide text beside a SMILES is read from it.

For `C[C@H](N)C(=O)N[C@@H](C)C(=O)O` [Ala-Ala] (H-Ala-Ala-OH), the Kd on PepTSo was about 0.035 mM.

On AtNRT1.1 [1], `[O-][Cl+2]([O-])O` [chlorate] returned a Kd of about 5 mM.

For `O=[N+]([O-])O` [nitrate], the results for the Kd on AtNRT1.1 [2] and at AtNRT1.1 [3] were 1 ± 0.12 mM and 1 ± 0.15 mM, respectively.

In assay [4], di-peptide Ala-Ala yielded a Kd of 0.035 mM.
